According to ChEMBL document CHEMBL3399993, “Design and synthesis of novel quinoline-aminopiperidine hybrid analogues as Mycobacterium tuberculosis DNA gyraseB inhibitors” (Bioorg Med Chem, 2015):
Converted amounts (≈) assume the structure as drawn.

Key:
[1] = Cytotoxicity against mouse RAW264.7 cells assessed as inhibition of cell growth at 50 uM after 48 hrs by MTT assay; type: cell-based; conditions: read-out: GI
[2] = test system: Mycobacterium tuberculosis; experiment: Antimycobacterial activity against Mycobacterium tuberculosis H37Rv ATCC 27294 incubated for 7 days by microplate alamar blue assay method; type: functional; conditions: H37Rv ATCC 27294, 168 h
DNA gyrase subunit B = DNA gyrase subunit B (Mycobacterium smegmatis, UniProt P0C559); experiment: Inhibition of Mycobacterium smegmatis GyrB ATPase activity expressed in Escherichia coli BL21 (DE3) pLysS cells after 100 mins by inorganic phosphate release detection based malachite green reagent assay; design: species or system Mycolicibacterium smegmatis
[3] = molecular target: DNA gyrase subunit A/DNA gyrase subunit B (Mycobacterium tuberculosis (strain ATCC 25618 / H37Rv), UniProt P9WG45+P9WG47); experiment: Inhibition of Mycobacterium tuberculosis GyrA/GyrB using relaxed pBR322 substrate incubated for 30 mins by ethidium bromide staining and electrophoresis based DNA supercoiling assay
Chain of DNA gyrase subunit A/DNA gyrase subunit B (P9WG45 whole entry): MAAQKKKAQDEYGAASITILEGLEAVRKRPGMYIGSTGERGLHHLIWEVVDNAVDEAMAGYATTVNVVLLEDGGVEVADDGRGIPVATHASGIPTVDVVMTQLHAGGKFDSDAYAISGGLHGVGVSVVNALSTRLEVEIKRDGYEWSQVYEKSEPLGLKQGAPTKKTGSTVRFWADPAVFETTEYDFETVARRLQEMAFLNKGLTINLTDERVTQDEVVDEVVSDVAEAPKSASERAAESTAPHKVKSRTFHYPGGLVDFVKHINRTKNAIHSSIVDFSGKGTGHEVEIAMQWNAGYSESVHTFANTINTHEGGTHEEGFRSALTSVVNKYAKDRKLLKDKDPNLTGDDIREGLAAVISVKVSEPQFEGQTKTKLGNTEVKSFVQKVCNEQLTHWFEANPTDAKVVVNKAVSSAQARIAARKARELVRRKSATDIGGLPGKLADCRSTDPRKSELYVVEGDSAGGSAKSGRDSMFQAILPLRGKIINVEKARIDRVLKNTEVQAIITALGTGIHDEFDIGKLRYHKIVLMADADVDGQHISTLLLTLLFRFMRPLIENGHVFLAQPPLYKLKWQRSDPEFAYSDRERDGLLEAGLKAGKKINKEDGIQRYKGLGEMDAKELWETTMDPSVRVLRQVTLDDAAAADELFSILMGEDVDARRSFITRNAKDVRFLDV
Chain of DNA gyrase subunit A/DNA gyrase subunit B (P9WG47 whole entry): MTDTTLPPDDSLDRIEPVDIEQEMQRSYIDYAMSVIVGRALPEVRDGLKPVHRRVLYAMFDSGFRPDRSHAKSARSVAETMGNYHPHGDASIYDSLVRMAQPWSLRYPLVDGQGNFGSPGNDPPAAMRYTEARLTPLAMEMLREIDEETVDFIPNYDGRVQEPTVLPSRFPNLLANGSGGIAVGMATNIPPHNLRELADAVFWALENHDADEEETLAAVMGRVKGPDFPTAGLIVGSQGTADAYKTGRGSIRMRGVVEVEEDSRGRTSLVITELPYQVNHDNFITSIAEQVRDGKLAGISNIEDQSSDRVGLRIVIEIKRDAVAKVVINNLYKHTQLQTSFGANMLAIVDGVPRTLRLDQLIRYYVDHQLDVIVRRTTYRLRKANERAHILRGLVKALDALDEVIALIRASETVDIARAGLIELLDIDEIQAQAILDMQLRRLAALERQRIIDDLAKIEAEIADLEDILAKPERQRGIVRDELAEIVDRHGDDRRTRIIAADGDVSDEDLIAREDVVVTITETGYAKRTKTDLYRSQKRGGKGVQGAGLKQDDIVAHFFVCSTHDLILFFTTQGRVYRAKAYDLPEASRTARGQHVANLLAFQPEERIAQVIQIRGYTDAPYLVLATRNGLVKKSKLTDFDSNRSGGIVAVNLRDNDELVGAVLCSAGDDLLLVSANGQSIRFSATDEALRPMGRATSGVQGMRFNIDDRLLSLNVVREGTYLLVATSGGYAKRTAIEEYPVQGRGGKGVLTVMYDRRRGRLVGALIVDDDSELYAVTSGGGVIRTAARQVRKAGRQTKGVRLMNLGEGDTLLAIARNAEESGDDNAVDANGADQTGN

Chain of DNA gyrase subunit B (P0C559 whole entry): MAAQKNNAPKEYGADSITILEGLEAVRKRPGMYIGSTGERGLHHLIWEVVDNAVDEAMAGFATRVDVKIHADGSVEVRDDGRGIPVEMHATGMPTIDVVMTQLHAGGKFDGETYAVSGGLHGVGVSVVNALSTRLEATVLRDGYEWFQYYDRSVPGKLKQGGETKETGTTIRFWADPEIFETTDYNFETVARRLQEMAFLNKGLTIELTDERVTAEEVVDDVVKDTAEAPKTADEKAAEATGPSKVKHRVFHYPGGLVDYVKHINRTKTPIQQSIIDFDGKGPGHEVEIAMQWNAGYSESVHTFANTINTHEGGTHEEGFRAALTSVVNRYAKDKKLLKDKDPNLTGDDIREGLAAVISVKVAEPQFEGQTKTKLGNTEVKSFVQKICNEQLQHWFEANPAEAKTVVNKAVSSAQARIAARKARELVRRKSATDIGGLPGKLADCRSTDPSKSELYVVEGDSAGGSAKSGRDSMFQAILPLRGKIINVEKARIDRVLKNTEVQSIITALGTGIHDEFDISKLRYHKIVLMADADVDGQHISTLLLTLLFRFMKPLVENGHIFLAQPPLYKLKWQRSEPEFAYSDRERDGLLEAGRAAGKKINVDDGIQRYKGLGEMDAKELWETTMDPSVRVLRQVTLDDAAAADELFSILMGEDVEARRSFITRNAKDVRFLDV

| Compound | inhibition at 48 h, 50 µM [1] | MIC [2] | IC50 (DNA gyrase subunit B) | IC50 [3] |
| --- | --- | --- | --- | --- |
| COc1ccc(NC(=O)NC2CCN(c3cc(C)nc4ccc(OC)cc34)CC2)cc1 | 19.6% | 12.6 µM (≈ 5.29 µg/mL) | 9.25 µM | 5.86 µM |
| Cc1cc(N2CCC(NC(=O)Nc3ccc(Cl)cc3)CC2)c2cc(F)ccc2n1 | 49.7% | 50.8 µM (≈ 21 µg/mL) | 49 µM | 29.6 µM |
| Cc1ccc(NC(=S)NC2CCN(c3cc(C)nc4ccc(C(F)(F)F)cc34)CC2)cc1 | 19.3% | 31.7 µM (≈ 14.5 µg/mL) | 24.7 µM | 5.1 µM |
| COc1ccc2nc(C)cc(N3CCC(NC(=O)Nc4ccc([N+](=O)[O-])cc4)CC3)c2c1 | 35% | 14.7 µM (≈ 6.4 µg/mL) | 6.99 µM | 5.33 µM |
| COc1ccc(NC(=S)NC2CCN(c3cc(C)nc4ccc(OC)cc34)CC2)cc1 | 31.8% | 15.8 µM (≈ 6.92 µg/mL) | 10.1 µM | 6.17 µM |
| COc1ccc(NC(=S)NC2CCN(c3cc(C)nc4ccc(C(F)(F)F)cc34)CC2)cc1 | 41.8% | 66.9 µM (≈ 31.7 µg/mL) | 32.6 µM | 34.5 µM |
| Cc1ccc(NC(=O)NC2CCN(c3cc(C)nc4ccc(C(F)(F)F)cc34)CC2)cc1 | 16.2% | 28.1 µM (≈ 12.4 µg/mL) | 16.6 µM | 9.2 µM |
| Cc1ccc(NC(=S)NC2CCN(c3cc(C)nc4ccc(F)cc34)CC2)cc1 | 23.9% | 67.9 µM (≈ 27.8 µg/mL) | 59.3 µM | 25.4 µM |
| COc1ccc2nc(C)cc(N3CCC(NC(=S)Nc4ccc([N+](=O)[O-])cc4)CC3)c2c1 | 24.9% | 1.72 µM (≈ 0.777 µg/mL) | 2.5 µM | 0.88 µM |
| COc1ccc(NC(=O)NC2CCN(c3cc(C)nc4ccc(C(F)(F)F)cc34)CC2)cc1 | 29% | 54.3 µM (≈ 24.9 µg/mL) | 41.2 µM | 19.8 µM |
| COc1ccc(NC(=S)NC2CCN(c3cc(C)nc4ccc(F)cc34)CC2)cc1 | 21.3% | 31.7 µM (≈ 13.4 µg/mL) | 39.5 µM | 17.8 µM |
| COc1ccc(NC(=O)NC2CCN(c3cc(C)nc4ccc(F)cc34)CC2)cc1 | 49.7% | 7.65 µM (≈ 3.12 µg/mL) | 10.1 µM | 7.62 µM |
| Cc1cc(N2CCC(NC(=O)Nc3ccc(Cl)cc3)CC2)c2cc(C(F)(F)F)ccc2n1 | 29.1% | 48.5 µM (≈ 22.5 µg/mL) | 34 µM | 17.3 µM |
| NNC(=O)c1ccncc1 [ISONIAZID] |  | 0.66 µM (≈ 0.0905 µg/mL) |  |  |
| Cc1cc(N2CCC(NC(=S)Nc3ccc([N+](=O)[O-])cc3)CC2)c2ccccc2n1 | 31.8% | 7.65 µM (≈ 3.22 µg/mL) | 3.77 µM | 1.21 µM |
| COc1ccc(NC(=S)NC2CCN(c3cc(C)nc4ccccc34)CC2)cc1 | 21.9% | 30.2 µM (≈ 12.3 µg/mL) | 19.4 µM | 13.5 µM |
| COc1ccc(NC(=O)NC2CCN(c3cc(C)nc4ccccc34)CC2)cc1 | 49.5% | 32 µM (≈ 12.5 µg/mL) | 22 µM | 18.5 µM |
| Cc1cc(N2CCC(NC(=S)Nc3ccc(F)cc3)CC2)c2cc(F)ccc2n1 | 33.9% | 63.3 µM (≈ 26.1 µg/mL) | 45.9 µM | 23.5 µM |
| CO[C@H]1/C=C/O[C@@]2(C)Oc3c(C)c(O)c4c(O)c(c(/C=N/N5CCN(C)CC5)c(O)c4c3C2=O)NC(=O)/C(C)=C\C=C\[C@H](C)[C@H](O)[C@@H](C)[C@@H](O)[C@@H](C)[C@H](OC(C)=O)[C@@H]1C [RIFAMPIN] |  | 0.23 µM (≈ 0.189 µg/mL) |  |  |
| Cc1cc(N2CCC(NC(=O)Nc3ccc(F)cc3)CC2)c2cc(F)ccc2n1 | 25.4% | 3.82 µM (≈ 1.51 µg/mL) | 1.78 µM | 0.78 µM |

| Compound | inhibition at 48 h, 50 µM [1] | MIC [2] | IC50 (DNA gyrase subunit B) | IC50 [3] |
| --- | --- | --- | --- | --- |
| Cc1cc(N2CCC(NC(=S)Nc3ccc(Cl)cc3)CC2)c2cc(C(F)(F)F)ccc2n1 | 11.8% | 30.7 µM (≈ 14.7 µg/mL) | 16.5 µM | 4.12 µM |
| CO[C@@H]1[C@@H](OC(N)=O)[C@@H](O)[C@H](Oc2ccc3c(O)c(NC(=O)c4ccc(O)c(CC=C(C)C)c4)c(=O)oc3c2C)OC1(C)C [NOVOBIOCIN] |  | > 200 µM |  |  |
| COc1ccc2nc(C)cc(N3CCC(NC(=S)Nc4ccccc4)CC3)c2c1 | 41.9% | 3.81 µM (≈ 1.55 µg/mL) | 2.14 µM | 0.91 µM |
| Cc1cc(N2CCC(NC(=S)Nc3ccc(F)cc3)CC2)c2cc(C(F)(F)F)ccc2n1 | 50.7% | 66.5 µM (≈ 30.8 µg/mL) | 48.5 µM | 22.8 µM |
| Cc1cc(N2CCC(NC(=S)Nc3ccc(F)cc3)CC2)c2ccccc2n1 | 32.9% | 36.1 µM (≈ 14.3 µg/mL) | 29.8 µM | 16.7 µM |
| Cc1cc(N2CCC(NC(=S)Nc3ccccc3)CC2)c2cc(C(F)(F)F)ccc2n1 | 23.3% | 35.8 µM (≈ 15.9 µg/mL) | 39 µM | 29.4 µM |
| Cc1ccc(NC(=O)NC2CCN(c3cc(C)nc4ccc(F)cc34)CC2)cc1 | 39.7% | 16 µM (≈ 6.27 µg/mL) | 15 µM | 8.83 µM |
| Cc1cc(N2CCC(NC(=O)Nc3ccc(Cl)cc3)CC2)c2ccccc2n1 | 40.1% | 7.91 µM (≈ 3.12 µg/mL) | 12.9 µM | 8.2 µM |
| Cc1cc(N2CCC(NC(=S)Nc3ccc(Cl)cc3)CC2)c2ccccc2n1 | 20.8% | 15.2 µM (≈ 6.25 µg/mL) | 12.3 µM | 8.12 µM |
| COc1ccc2nc(C)cc(N3CCC(NC(=O)Nc4ccc(C)cc4)CC3)c2c1 | 28.2% | 15.4 µM (≈ 6.25 µg/mL) | 11.5 µM | 8.63 µM |
| Cc1cc(N2CCC(NC(=S)Nc3ccc([N+](=O)[O-])cc3)CC2)c2cc(F)ccc2n1 | 40.7% | 63.3 µM (≈ 27.8 µg/mL) | 56.1 µM | 25.5 µM |
| COc1ccc2nc(C)cc(N3CCC(NC(=O)Nc4ccccc4)CC3)c2c1 | 66.5% | 32 µM (≈ 12.5 µg/mL) | 12.2 µM | 9.32 µM |
| Cc1cc(N2CCC(NC(=O)Nc3ccc([N+](=O)[O-])cc3)CC2)c2cc(C(F)(F)F)ccc2n1 | 48.2% | 52.2 µM (≈ 24.7 µg/mL) | 47.6 µM | 22.3 µM |
| Cc1ccc(NC(=O)NC2CCN(c3cc(C)nc4ccccc34)CC2)cc1 | 51.4% | 24.1 µM (≈ 9.04 µg/mL) | 20.5 µM | 14.8 µM |
| COc1ccc2nc(C)cc(N3CCC(NC(=S)Nc4ccc(F)cc4)CC3)c2c1 | 29.3% | 14.7 µM (≈ 6.25 µg/mL) | 8.7 µM | 2.31 µM |
| Cc1cc(N2CCC(NC(=S)Nc3ccccc3)CC2)c2cc(F)ccc2n1 | 37.4% | 63.3 µM (≈ 25 µg/mL) | 68.2 µM | 39.4 µM |
| Cc1cc(N2CCC(NC(=O)Nc3ccccc3)CC2)c2cc(F)ccc2n1 | 48.9% | 33 µM (≈ 12.5 µg/mL) | 20.5 µM | 9.84 µM |
| COc1c(N2C[C@@H]3CCCN[C@@H]3C2)c(F)cc2c(=O)c(C(=O)O)cn(C3CC3)c12 [MOXIFLOXACIN] |  | 1.26 µM (≈ 0.506 µg/mL) | > 50 µM |  |
| Cc1cc(N2CCC(NC(=O)Nc3ccccc3)CC2)c2ccccc2n1 | 33.9% | 25.8 µM (≈ 9.31 µg/mL) | 17.3 µM | 9.79 µM |
| Cc1cc(N2CCC(NC(=O)Nc3ccc(F)cc3)CC2)c2cc(C(F)(F)F)ccc2n1 | 39.8% | 24.9 µM (≈ 11.1 µg/mL) | 19.8 µM | 11.8 µM |
